Article PMC10410440, “Preclinical PK investigation of a novel IDO1/TDO dual inhibitor—SHR9146 in mouse plasma and tissues by LC-MS/MS” (Frontiers in Oncology, 2023)
Where “and” joins values, the source holds several entries; their conditions need not be identical. Equal values may be shown once. Entries after “also recorded” stand apart in the source; their conditions may differ. Read-outs that look alike come from different tables or passages of the source.

Assay: Plasma pharmacokinetics of SHR9146 in mice (LC-MS/MS, non-compartmental analysis)
Type: in vivo, ICR mice
Conditions: for AUC(0-t): read-out: AUC0-t; for half-life: read-out: t1/2 (converted); for Cmax: read-out: Cmax; for Tmax: read-out: Tmax
Procedure: ICR mice with body weight 16–26 g were supplied by Shanghai Lingchang Biotechnology Co., Ltd. (animal breeding license number SCXK (Shanghai) 2013-0018) and housed at Shanghai Institute of Materia Medica, Chinese Academy of Sciences [animal use license number SYXK (Shanghai) 2015-0027]. The mice used in this study were fasted overnight for 12 h but had free access to water. Food was supplied 4 h post-dose. All experiments in this study were conducted in accordance with the Guidelines for the Care and Use of Laboratory Animals of Shanghai Institute of Materia Medica, Chinese Academy of Sciences.
A total of 30 mice were randomly assigned into five groups with equal numbers, males and females. One group was intravenously administrated with 5 mg/kg SHR9146 dissolved in […] plus 95% saline (adjusted pH to 4.0) under sterile conditions. The remaining four groups were administered respectively with a single dose of 20 , 40, or 80 mg/kg or multiple doses of 20 mg/kg twice daily for 7 days, by oral gavage of SHR9146 dissolved in 0.5% CMC-Na. Blood samples were obtained from the fossa orbitalis vein at 15 and 30 min and 1.0, 2.0, 4.0, 6.0, 8.0, 10.0, and 24.0 h after oral gavage administration. An additional 5-min time point was included for iv injection, as well as the pre-drug administration time points on the fifth, sixth, and seventh days in the multiple-dose group. The blood samples were collected in EDTA K2 anticoagulant blood collection tubes and centrifuged at 1,000 rpm for 5 min at 4°C. The supernatant plasma samples were thus produced.
Briefly as follows, an aliquot of 25-μL plasma or tissue homogenate was spiked with 100 μL of internal standard solution (1 μg/mL for plasma, 0.2 μg/mL for tissue homogenate) and 300 μL of methanol added and vortex mixed for 60 s. The mixture was then centrifuged at 14,000 rpm at 4°C for 5.0 min, and the supernatant was diluted with methanol–water (4:1, v/v) in a ratio of 1:9 for the plasma or 1:1 for the tissue homogenate, and 5 μL of the resulting solution was injected for the LC-MS/MS analysis.
The pharmacokinetic parameters of SHR9146 in mouse plasma were estimated by Phoenix 1.4 software using a non-compartmental model.
The mean concentration–time curves of SHR9146 in mouse plasma after a single oral gavage dose of 20, 40, or 80 mg/kg, or a single intravenous dose of 5 mg/kg, or the 7th-day steady state after twice-daily multiple oral doses of 20 mg/kg are shown in Figure 5 (Table S6).

[1] = female, ICR, mouse, plasma, iv, 5 mg/kg, 5 mg/kg i.v. single dose, female mice, plasma
[2] = female, ICR, mouse, plasma, po, 20 mg/kg, 20 mg/kg i.g. bid, 7 days (7th-day steady state), female mice, plasma
[3] = female, ICR, mouse, plasma, po, 20 mg/kg, 20 mg/kg i.g. single dose, female mice, plasma
[4] = female, ICR, mouse, plasma, po, 40 mg/kg, 40 mg/kg i.g. single dose, female mice, plasma
[5] = female, ICR, mouse, plasma, po, 80 mg/kg, 80 mg/kg i.g. single dose, female mice, plasma
[6] = male, ICR, mouse, plasma, iv, 5 mg/kg, 5 mg/kg i.v. single dose, male mice, plasma
[7] = male, ICR, mouse, plasma, po, 20 mg/kg, 20 mg/kg i.g. bid, 7 days (7th-day steady state), male mice, plasma
[8] = male, ICR, mouse, plasma, po, 20 mg/kg, 20 mg/kg i.g. single dose, male mice, plasma
[9] = male, ICR, mouse, plasma, po, 40 mg/kg, 40 mg/kg i.g. single dose, male mice, plasma
[10] = male, ICR, mouse, plasma, po, 80 mg/kg, 80 mg/kg i.g. single dose, male mice, plasma
[11] = single oral dosing 20 to 80 mg/kg pooled, mouse plasma, n=6

MRT inf (both sexes, ICR, mouse, po, 80 mg/kg i.g. single dose, all mice (Totol, 3 male + 3 female), plasma, read-out: MRT0-∞): 4.6 h
AUC(0-inf) (female, ICR, mouse, plasma, iv, 5 mg/kg, 5 mg/kg i.v. single dose, female mice): 6910 ng·h/mL
AUC(0-t) [1]: 6800 ng·h/mL
half-life [1]: 0.665 h
AUC(0-inf) (female, ICR, mouse, plasma, po, 20 mg/kg, 20 mg/kg i.g. bid, 7 days (7th-day steady state), female mice): 24300 ng·h/mL
AUC(0-t) [2]: 24200 ng·h/mL
Cmax [2]: 10900 ± 737 ng/mL
Tmax [2]: 0.833 ± 0.289 h
half-life [2]: 0.951 h
AUC(0-inf) (female, ICR, mouse, plasma, po, 20 mg/kg, 20 mg/kg i.g. single dose, female mice): 17900 ng·h/mL
AUC(0-t) [3]: 16800 ng·h/mL
Cmax [3]: 9170 ± 4240 ng/mL
Tmax [3]: 0.5 ± 0.433 h
half-life [3]: 0.866 h
AUC(0-t) [4]: 12400 ng·h/mL
Cmax [4]: 9880 ± 3490 ng/mL
Tmax [4]: 1.83 ± 1.89 h
AUC(0-inf) (female, ICR, mouse, plasma, po, 80 mg/kg, 80 mg/kg i.g. single dose, female mice): 65900 ng·h/mL
AUC(0-t) [5]: 64700 ng·h/mL
Cmax [5]: 18700 ± 7300 ng/mL
Tmax [5]: 1.17 ± 0.764 h
half-life [5]: 1.49 h
AUC(0-inf) (male, ICR, mouse, plasma, iv, 5 mg/kg, 5 mg/kg i.v. single dose, male mice): 6950 ng·h/mL
AUC(0-t) [6]: 6730 ng·h/mL
half-life [6]: 0.761 h
AUC(0-inf) (male, ICR, mouse, plasma, po, 20 mg/kg, 20 mg/kg i.g. bid, 7 days (7th-day steady state), male mice): 24400 ng·h/mL
AUC(0-t) [7]: 24300 ng·h/mL
Cmax [7]: 10500 ± 993 ng/mL
Tmax [7]: 0.833 ± 0.289 h
half-life [7]: 1.06 h
AUC(0-inf) (male, ICR, mouse, plasma, po, 20 mg/kg, 20 mg/kg i.g. single dose, male mice): 14600 ng·h/mL
AUC(0-t) [8]: 14400 ng·h/mL
Cmax [8]: 10000 ± 2370 ng/mL
Tmax [8]: 0.417 ± 0.144 h
half-life [8]: 0.531 h
AUC(0-inf) (male, ICR, mouse, plasma, po, 40 mg/kg, 40 mg/kg i.g. single dose, male mice): 33400 ng·h/mL
AUC(0-t) [9]: 31000 ng·h/mL
Cmax [9]: 15000 ± 3240 ng/mL
Tmax [9]: 1.33 ± 0.577 h
half-life [9]: 1.66 h
AUC(0-inf) (male, ICR, mouse, plasma, po, 80 mg/kg, 80 mg/kg i.g. single dose, male mice): 75900 ng·h/mL
AUC(0-t) [10]: 75300 ng·h/mL
Cmax [10]: 15500 ± 6150 ng/mL
Tmax [10]: 1.83 ± 1.89 h
half-life [10]: 3.3 h
Vd, post-oral (oral 20 to 80 mg/kg pooled, mouse plasma, n=6): 3.427 ± 1.617 L/kg
Vd, post-oral [11]: 3.43 ± 1.62 L/kg
SMILES: OCCn1cc(-c2ccc(N3CCC([C@H]4c5c(F)cccc5-c5cncn54)CC3)cc2)cn1 [SHR9146]
dose dependence of oral pharmacokinetics (oral 20 to 80 mg/kg, mice, Cmax and AUC): dose proportionality; also recorded: linear pharmacokinetics characteristics; also recorded: dose-independent kinetics
CL, post-oral [11]: 19.8 ± 0.9 mL/min/kg and 19.769 ± 0.866 mL/min/kg
